Where a name gives a salt, the structure may show the parent alone. Read-outs that look alike come from different tables or passages of the source.
Legend:
pERK in MKN1 cells = assay: pERK inhibition, In-Cell Western (LI-COR Odyssey), MKN1 cells; format: cell-based; details: Homo sapiens
Outline: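 MKN1 cells were exposed for about 0.5–1 h at 37 °C to nine 3-fold dilutions starting at 10 µM. Cells were then fixed in formaldehyde, permeabilised with methanol, and immunostained for pERK and GAPDH with near-infrared secondary antibodies. GAPDH-normalised pERK signal relative to vehicle gave % inhibition, from which IC50 was fitted.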

[1] = molecular target: T1, recombinant human SOS1 polypeptide (amino acids 560-1049) (Homo sapiens, UniProt Q07889); assay: HTRF displacement assay: inhibition of labeled tracer binding to SOS1; details: Table A1, Morrison equation for competitive binding
T1 construct: corresponding to amino acids 560-1049, expressed in E. Coli; made in house; host or cells: E. coli
T1 sequence (Q07889 560-1049): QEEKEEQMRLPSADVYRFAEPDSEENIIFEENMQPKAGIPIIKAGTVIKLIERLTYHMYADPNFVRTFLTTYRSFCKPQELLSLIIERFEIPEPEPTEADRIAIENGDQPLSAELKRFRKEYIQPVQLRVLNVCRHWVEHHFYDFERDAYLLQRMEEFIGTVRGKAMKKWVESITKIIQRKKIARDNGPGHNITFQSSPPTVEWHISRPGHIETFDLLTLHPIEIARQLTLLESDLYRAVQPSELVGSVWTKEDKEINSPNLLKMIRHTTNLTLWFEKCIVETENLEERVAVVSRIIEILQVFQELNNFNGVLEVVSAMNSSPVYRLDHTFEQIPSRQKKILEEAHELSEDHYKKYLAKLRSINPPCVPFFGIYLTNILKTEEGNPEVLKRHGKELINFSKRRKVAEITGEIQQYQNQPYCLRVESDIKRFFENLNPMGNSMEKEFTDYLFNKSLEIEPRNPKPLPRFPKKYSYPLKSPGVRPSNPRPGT

[2] = MKN-1, Table B1, MKN1 or H358 cells (table does not say which), 0.5-1 hour incubation, read-out: IC50 (nM), pERK inhibition
[3] = MKN-1, read-out: IC50 (nM), pERK inhibition

In the case of `Cc1c(C#N)cccc1[C@@H](C)Nc1nnc(C)c2c(C)nc(N(C)[C@H]3CCN(C)C3)cc12` [Example P-190, 3-((R)-1-((4,5-dimethyl-7-(methyl((S)-1-methylpyrrolidin-3-yl)amino)pyrido[3,4-d]pyridazin-1-yl)amino)ethyl)-2-methylbenzonitrile], the IC50 (pERK in MKN1 cells; [2]) is reported as 63.6 nM and the Ki [1] is reported as 0.572 nM.
`Cc1c(C#N)cccc1[C@@H](C)Nc1nnc(C)c2c(C)nc(N3CCN(C)C(C)(C)C3)cc12` [Example P-191, (R)-3-(1-((4,5-dimethyl-7-(3,3,4-trimethylpiperazin-1-yl)pyrido[3,4-d]pyridazin-1-yl)amino)ethyl)-2-methylbenzonitrile] showed an IC50 (pERK in MKN1 cells; [2]) of 26 nM and a Ki [1] of 0.892 nM.
Molecule `Cc1c(C#N)cccc1[C@@H](C)Nc1nnc(C)c2c(C)nc(N3C[C@H]4C[C@@H]3CN4C)cc12` [Example P-192, 3-((R)-1-((4,5-dimethyl-7-((1R,4R)-5-methyl-2,5-diazabicyclo[2.2.1]heptan-2-yl)pyrido[3,4-d]pyridazin-1-yl)amino)ethyl)-2-methylbenzonitrile] has an IC50 (pERK in MKN1 cells; [2]) of 104 nM and a Ki [1] of 2.93 nM.
`Cc1c(C#N)cccc1[C@@H](C)Nc1nnc(C)c2cc(Cl)c(N(C)[C@H]3CCN(C)C3)cc12` [Example P-193, 3-((R)-1-((6-chloro-4-methyl-7-(methyl((S)-1-methylpyrrolidin-3-yl)amino)phthalazin-1-yl)amino)ethyl)-2-methylbenzonitrile] was tested, and the IC50 (pERK in MKN1 cells; [2]) was 512 nM and the Ki [1] was 1.47 nM.
For `Cc1c(C#N)cccc1[C@@H](C)Nc1nnc(C)c2cc(Cl)c(N(C)[C@@H]3CCN(C)C3)cc12` [Example P-194, 3-((R)-1-((6-chloro-4-methyl-7-(methyl((R)-1-methylpyrrolidin-3-yl)amino)phthalazin-1-yl)amino)ethyl)-2-methylbenzonitrile], the IC50 (pERK in MKN1 cells; [2]) was 231 nM and the Ki [1] was 5.27 nM.
With `Cc1c(C#N)cccc1[C@@H](C)Nc1nnc(C)c2cc(Cl)c(N(C)C)cc12` [Example P-195, (R)-3-(1-((6-chloro-7-(dimethylamino)-4-methylphthalazin-1-yl)amino)ethyl)-2-methylbenzonitrile formic acid salt] the IC50 (pERK in MKN1 cells; [3]) was 7130 nM and the Ki [1] was 154 nM.
`Cc1c(C#N)cccc1[C@@H](C)Nc1nnc(C)c2cc(Cl)c(N(C)C[C@H]3CCCN3C)cc12` [Example P-196, 3-((R)-1-((6-chloro-4-methyl-7-(methyl(((R)-1-methylpyrrolidin-2-yl)methyl)amino)phthalazin-1-yl)amino)ethyl)-2-methylbenzonitrile formic acid salt] gave an IC50 (pERK in MKN1 cells; [3]) of 584 nM and a Ki [1] of 5.98 nM.
`Cc1c(C#N)cccc1[C@@H](C)Nc1nnc(C)c2cc(Cl)c(N3CCS(=O)(=O)CC3)cc12` [Example P-197, (R)-3-(1-((6-chloro-7-(1,1-dioxidothiomorpholino)-4-methylphthalazin-1-yl)amino)ethyl)-2-methylbenzonitrile] showed an IC50 (pERK in MKN1 cells; [2]) of 204 nM and a Ki [1] of 8.97 nM.
In the case of `Cc1c(C#N)cccc1[C@@H](C)Nc1nnc(C)c2cc(Cl)c(N3CCC34CN(C)C4)cc12` [Example P-198, (R)-3-(1-((6-chloro-4-methyl-7-(6-methyl-1,6-diazaspiro[3.3]heptan-1-yl)phthalazin-1-yl)amino)ethyl)-2-methylbenzonitrile], the IC50 (pERK in MKN1 cells; [2]) is reported as 182 nM and the Ki [1] is reported as 1.1 nM.
`Cc1nnc(N[C@H](C)c2cccc(C(C)(F)F)c2F)c2cc(N(C)[C@@H]3CCN(C)C3)ncc12` [Example P-199, N1-((R)-1-(3-(1,1-difluoroethyl)-2-fluorophenyl)ethyl)-N7,4-dimethyl-N7-((R)-1-methylpyrrolidin-3-yl)pyrido[3,4-d]pyridazine-1,7-diamine] gave an IC50 (pERK in MKN1 cells; [2]) of 59.1 nM and a Ki [1] of 0.321 nM.
With `Cc1nnc(N[C@H](C)c2cccc(C(C)(F)F)c2F)c2cc(N(C)[C@H]3CCN(C)C3)ncc12` [Example P-200, N1-((R)-1-(3-(1,1-difluoroethyl)-2-fluorophenyl)ethyl)-N7,4-dimethyl-N7-((S)-1-methylpyrrolidin-3-yl)pyrido[3,4-d]pyridazine-1,7-diamine] the IC50 (pERK in MKN1 cells; [2]) was 6.77 nM and the Ki [1] was 0.517 nM.
In the case of `Cc1c(C#N)cccc1[C@@H](C)Nc1nnc(C)c2cnc(N3CCOCC34CN(C)C4)cc12` [Example P-211, (R)-2-methyl-3-(1-((4-methyl-7-(2-methyl-8-oxa-2,5-diazaspiro[3.5]nonan-5-yl)pyrido[3,4-d]pyridazin-1-yl)amino)ethyl)benzonitrile], the IC50 (pERK in MKN1 cells; [2]) is reported as 503 nM and the Ki [1] is reported as 13.4 nM.
For `Cc1ccccc1[C@@H](C)Nc1nnc(C)c2cnc(N3CCOCC3)cc12` [Example P-212, (R)-4-methyl-7-morpholino-N-(1-(o-tolyl)ethyl)pyrido[3,4-d]pyridazin-1-amine], the IC50 (pERK in MKN1 cells; [2]) was 894 nM and the Ki [1] was 54.8 nM.
`Cc1c(Br)cccc1[C@@H](C)Nc1nnc(C)c2cc(F)c(N3CCC34CN(C)C4)cc12` [Example P-214, (R)-N-(1-(3-bromo-2-methylphenyl)ethyl)-6-fluoro-4-methyl-7-(6-methyl-1,6-diazaspiro[3.3]heptan-1-yl)phthalazin-1-amine] was tested, and the IC50 (pERK in MKN1 cells; [2]) was 156 nM and the Ki [1] was 0.262 nM.
For `CC(=O)N1CC2(CCN2c2cc3c(N[C@H](C)c4cccc(C#N)c4C)nnc(C)c3cn2)C1` [Example P-215, (R)-3-(1-((7-(6-acetyl-1,6-diazaspiro[3.3]heptan-1-yl)-4-methylpyrido[3,4-d]pyridazin-1-yl)amino)ethyl)-2-methylbenzonitrile], the IC50 (pERK in MKN1 cells; [2]) was 38.7 nM and the Ki [1] was 2.23 nM.
For `CC(=O)N1CC2(CCN2c2cc3c(N[C@H](C)c4cccc(C#N)c4C)nnc(C)c3cc2F)C1` [Example P-216, (R)-3-(1-((7-(6-acetyl-1,6-diazaspiro[3.3]heptan-1-yl)-6-fluoro-4-methylphthalazin-1-yl)amino)ethyl)-2-methylbenzonitrile formic acid salt], the IC50 (pERK in MKN1 cells; [3]) was 27.9 nM and the Ki [1] was 1.98 nM.
For `COCCN1CC2(CCN2c2cc3c(N[C@H](C)c4cccc(C#N)c4C)nnc(C)c3cn2)C1` [Example P-217, (R)-3-(1-((7-(6-(2-methoxyethyl)-1,6-diazaspiro[3.3]heptan-1-yl)-4-methylpyrido[3,4-d]pyridazin-1-yl)amino)ethyl)-2-methylbenzonitrile formic acid salt], the IC50 (pERK in MKN1 cells; [3]) was 43.1 nM and the Ki [1] was 0.762 nM.
In the case of `COCCN1CC2(CCN2c2cc3c(N[C@H](C)c4cccc(C#N)c4C)nnc(C)c3cc2F)C1` [Example P-218, (R)-3-(1-((6-fluoro-7-(6-(2-methoxyethyl)-1,6-diazaspiro[3.3]heptan-1-yl)-4-methylphthalazin-1-yl)amino)ethyl)-2-methylbenzonitrile formic acid salt], the IC50 (pERK in MKN1 cells; [3]) is reported as 60.3 nM and the Ki [1] is reported as 0.786 nM.
`Cc1c(C#N)cccc1[C@@H](C)Nc1nnc(C)c2cc(F)c(N3CCC34CN(CCO)C4)cc12` [Example P-219, (R)-3-(1-((6-fluoro-7-(6-(2-hydroxyethyl)-1,6-diazaspiro[3.3]heptan-1-yl)-4-methylphthalazin-1-yl)amino)ethyl)-2-methylbenzonitrile] was tested, and the IC50 (pERK in MKN1 cells; [2]) was 41.1 nM and the Ki [1] was 0.665 nM.
With `Cc1c(C#N)cccc1[C@@H](C)Nc1nnc(C)c2cc(F)c(N3CCC34CN(CCC(=O)O)C4)cc12` [Example P-220, (R)-3-(1-(4-((1-(3-cyano-2-methylphenyl)ethyl)amino)-7-fluoro-1-methylphthalazin-6-yl)-1,6-diazaspiro[3.3]heptan-6-yl)propanoic acid] the IC50 (pERK in MKN1 cells; [2]) was 4110 nM and the Ki [1] was 0.678 nM.
`CNc1cc2c(N[C@H](C)c3cccc(C#N)c3C)nnc(C)c2cc1F` [Example P-221, (R)-3-(1-((6-fluoro-4-methyl-7-(methylamino)phthalazin-1-yl)amino)ethyl)-2-methylbenzonitrile] gave an IC50 (pERK in MKN1 cells; [2]) of 154 nM and a Ki [1] of 8.75 nM.
For `Cc1c(C#N)cccc1[C@@H](C)Nc1nnc(C)c2cc(F)c(N(C)C)cc12` [Example P-222, (R)-3-(1-((7-(dimethylamino)-6-fluoro-4-methylphthalazin-1-yl)amino)ethyl)-2-methylbenzonitrile], the IC50 (pERK in MKN1 cells; [2]) was 188 nM and the Ki [1] was 3.97 nM.
For `Cc1c(C#N)cccc1[C@@H](C)Nc1nnc(C)c2cc(F)c(N3CCC3)cc12` [Example P-223, (R)-3-(1-((7-(azetidin-1-yl)-6-fluoro-4-methylphthalazin-1-yl)amino)ethyl)-2-methylbenzonitrile formic acid salt], the IC50 (pERK in MKN1 cells; [3]) was 141 nM and the Ki [1] was 9.3 nM.
With `Cc1c(C#N)cccc1[C@@H](C)Nc1nnc(C)c2cnc(N3CCC3)cc12` [Example P-224, (R)-3-(1-((7-(azetidin-1-yl)-4-methylpyrido[3,4-d]pyridazin-1-yl)amino)ethyl)-2-methylbenzonitrile] the IC50 (pERK in MKN1 cells; [2]) was 41.4 nM and the Ki [1] was 3.62 nM.
`Cc1nnc(N[C@H](C)c2cccc(C(F)F)c2F)c2cc(N3CCC34CN(CCCF)C4)ncc12` [Example P-226, (R)-N-(1-(3-(difluoromethyl)-2-fluorophenyl)ethyl)-7-(6-(3-fluoropropyl)-1,6-diazaspiro[3.3]heptan-1-yl)-4-methylpyrido[3,4-d]pyridazin-1-amine formic acid salt] gave an IC50 (pERK in MKN1 cells; [3]) of 62.3 nM and a Ki [1] of 0.288 nM.

From patent US20250059182A1, “SOS1 INHIBITORS” (Mirati Therapeutics, Inc., priority 2021, published 2025)
